In patent US10294202B2, “Pyrrolidinones as herbicides” (FMC Corporation, priority 2013, dated 2019):

Tests used:
[1] = test system: ragweed; test: Test C pre-/postemergence herbicide test; format: in vivo, Ambrosia elatior; conditions: Preemergence
How it was run: (§1)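 Response scores range from 0, meaning no effect, to 100, meaning complete control, assigned visually by comparison with controls roughly two weeks (13 to 15 days) after spraying. Applications were made preemergence to seeded loam–sand soil and postemergence to 1- to 4-leaf plants.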

[2] = test system: nutsedge, yellow; test: Test C pre-/postemergence herbicide test; format: in vivo, Cyperus esculentus; conditions: Preemergence
How it was run: as §1

[3] = test system: barnyardgrass; test: Test A pre-/postemergence herbicide test; format: in vivo, Echinochloa crus-galli; conditions: for Barnyardgrass plant response rating: Preemergence, visual rating on 0 to 100 scale (0 no effect, 100 complete control)
How it was run: (§2)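 Scoring was visual, relative to untreated controls, on a 0–100 scale after about 10 greenhouse days. Preemergence treatment used a directed soil spray over seeded loam/sand; postemergence treatment targeted one- to two-leaf plants of 2–10 cm.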

[4] = test system: corn; test: Test C pre-/postemergence herbicide test; format: in vivo, Zea mays; conditions: Preemergence; for Corn plant response rating: 31 g ai/ha
How it was run: as §1

[5] = test system: pigweed; test: Test A pre-/postemergence herbicide test; format: in vivo, Amaranthus retroflexus; conditions: for Pigweed plant response rating: Preemergence, visual rating on 0 to 100 scale (0 no effect, 100 complete control)
How it was run: as §2

[6] = test system: kochia; test: Test C pre-/postemergence herbicide test; format: in vivo, Kochia scoparia; conditions: Preemergence
Description: Seeds of plant species selected from blackgrass (Alopecurus myosuroides), ryegrass, Italian (Italian ryegrass, Lolium multiflorum), wheat (winter wheat, Triticum aestivum), galium (catchweed bedstraw, Galium aparine), corn (Zea mays), crabgrass, large (large crabgrass, Digitaria sanguinalis), foxtail, giant (giant foxtail, Setaria faberii), johnsongrass (Sorghum halepense), lambsquarters (Chenopodium album), morningglory (Ipomoea coccinea), nutsedge, yellow (yellow nutsedge, Cyperus esculentus), pigweed (Amaranthus retroflexus), ragweed (common ragweed, Ambrosia elatior), soybean (Glycine max), barnyardgrass (Echinochloa crus-galli), oilseed rape (Brassica napus), waterhemp (common waterhemp, Amaranthus rudis), kochia (Kochia scoparia), oat, wild (wild oat, Avena fatua), surinam grass (Brachiaria decumbens), foxtail, green (green foxtail, Setaria viridis), goosegrass (Eleusine indica), bromegrass, downy (downy bromegrass, Bromus tectorum), nightshade (eastern black nightshade, Solanum ptycanthum), cocklebur (common cocklebur, Xanthium strumarium), cupgrass, woolly (woolly cupgrass, Eriochloa villosa), bermudagrass (Cynodon dactylon), sunflower, (common oilseed sunflower, Helianthus annuus), Russian thistle (Salsola kali) and velvetleaf (Abutilon theophrasti) were planted into a blend of loam soil and sand and treated preemergence with test chemicals formulated in a non-phytotoxic solvent mixture which included a surfactant. At the same time, plants selected from these crop and weed species and also barley (winter barley, Hordeum vulgare), […]), chickweed (common chickweed, Stellaria media), deadnettle (henbit deadnettle, Lamium amplexicaule), and canarygrass (littleseed canarygrass, Phalaris minor) were planted in pots containing Redi-Earth® planting medium (Scotts Company, 14111 Scottslawn Road, Marysville, Ohio 43041) comprising spaghnum peat moss, vermiculite, wetting agent and starter nutrients and treated with postemergence applications of test chemicals formulated in the same manner. Plants ranged in height from 2 to 18 cm (1- to 4-leaf stage) for postemergence treatments. Treated plants and controls were maintained in a greenhouse for 13 to 15 days, after which time all species were compared to controls and visually evaluated. Plant response ratings, summarized in Table C, are based on a scale of 0 to 100 where 0 is no effect and 100 is complete control. A dash (-) response means no test result.

[7] = test system: oat, wild; test: Test C pre-/postemergence herbicide test; format: in vivo, Avena fatua; conditions: Preemergence
How it was run: as §1

[8] = 125 g ai/ha, scale 0 to 100 (0 no effect, 100 complete control)
[9] = Postemergence, 125 g ai/ha, 0 to 100 scale, 0 no effect, 100 complete control
[10] = Postemergence, 500 g ai/ha, 0 to 100 scale (0 no effect, 100 complete control)
[11] = preemergence, 500 g ai/ha, 0 to 100 scale (0 no effect, 100 complete control)
[12] = scale 0 to 100 (0 no effect, 100 complete control)
[13] = 250 g ai/ha, scale 0 to 100 (0 no effect, 100 complete control)
[14] = preemergence, 500 g ai/ha, 0 to 100 scale

Question: How did the “Plant response rating, Ragweed” value ([1]; 62 g ai/ha, scale 0 to 100) turn out when O=C1NCC(c2ccc(Cl)c(F)c2)C1C(=O)Nc1ccccc1F (stereo not drawn) [Compound 53] was run?
Answer: The value was 10.

Question: And the “Plant response rating, Ragweed” value [1, 8]?
Answer: Its value is 10.

Question: What about the “Plant response rating, Nutsedge, Yellow” value ([2]; 62 g ai/ha, scale 0 to 100) of the same compound?
Answer: The value was 20.

Question: What about the “Plant response rating, Barnyardgrass” value [3, 9] of the same compound?
Answer: Its value is 30.

Question: What about the “Plant response rating, Barnyardgrass” value [3, 10] of the same compound?
Answer: Its value is 80.

Question: And the “Barnyardgrass plant response rating” value ([3]; 125 g ai/ha)?
Answer: Its value is 80.

Question: What about the “Plant response rating, Barnyardgrass” value [3, 11] of the same compound?
Answer: The value was 90.

Question: What about the “Corn plant response rating” value [4, 12] of the same compound?
Answer: Its value is 10.

Question: And the “Plant response rating, Corn” value ([4]; 62 g ai/ha, scale 0 to 100)?
Answer: The value was 20.

Question: And the “Plant response rating, Corn” value [4, 8]?
Answer: Its value is 20.

Question: What about the “Plant response rating, Corn” value [4, 13] of the same compound?
Answer: The value was 20.

Question: What about the “Plant response rating, Pigweed” value [5, 9] of the same compound?
Answer: Its value is 0.

Question: And the “Plant response rating, Pigweed” value [5, 10]?
Answer: Its value is 0.

Question: What about the “Pigweed plant response rating” value ([5]; 125 g ai/ha) of the same compound?
Answer: The value was 0.

Question: What about the “Plant response rating, Pigweed” value [5, 14] of the same compound?
Answer: The value was 0.

Question: And the “Plant response rating, Kochia” value ([6]; 62 g ai/ha, scale 0 to 100)?
Answer: Its value is 0.

Question: What about the “Plant response rating, Kochia” value [6, 8] of the same compound?
Answer: Its value is 0.

Question: What about the “Plant response rating, Oat, Wild” value ([7]; 62 g ai/ha, scale 0 to 100) of the same compound?
Answer: The value was 0.

Question: And the “Plant response rating, Oat, Wild” value [7, 8]?
Answer: The value was 0.

Question: For O=C1NCC(c2ccc(F)c(Cl)c2)C1C(=O)Nc1cccc(F)c1F (stereo not drawn) [Compound 59], which “Plant response rating, Ragweed” value ([1]; 62 g ai/ha, scale 0 to 100) is on record?
Answer: Its value is 0.

Question: What about the “Plant response rating, Ragweed” value [1, 8] of the same compound?
Answer: Its value is 0.

Question: What about the “Plant response rating, Nutsedge, Yellow” value ([2]; 62 g ai/ha, scale 0 to 100) of the same compound?
Answer: The value was 0.

Question: What about the “Plant response rating, Nutsedge, Yellow” value [2, 8] of the same compound?
Answer: Its value is 0.

Question: What about the “Plant response rating, Barnyardgrass” value [3, 9] of the same compound?
Answer: Its value is 70.

Question: And the “Plant response rating, Barnyardgrass” value [3, 10]?
Answer: The value was 90.

Question: What about the “Barnyardgrass plant response rating” value ([3]; 125 g ai/ha) of the same compound?
Answer: The value was 80.

Question: And the “Plant response rating, Barnyardgrass” value [3, 11]?
Answer: The value was 90.

Question: What about the “Corn plant response rating” value [4, 12] of the same compound?
Answer: The value was 0.

Question: And the “Plant response rating, Corn” value ([4]; 62 g ai/ha, scale 0 to 100)?
Answer: The value was 10.

Question: And the “Plant response rating, Corn” value [4, 8]?
Answer: Its value is 10.

Question: And the “Plant response rating, Corn” value [4, 13]?
Answer: The value was 45.

Question: What about the “Plant response rating, Pigweed” value [5, 9] of the same compound?
Answer: Its value is 0.

Question: And the “Plant response rating, Pigweed” value [5, 10]?
Answer: Its value is 40.

Question: What about the “Pigweed plant response rating” value ([5]; 125 g ai/ha) of the same compound?
Answer: Its value is 0.

Question: What about the “Plant response rating, Pigweed” value [5, 14] of the same compound?
Answer: The value was 0.

Question: What about the “Plant response rating, Kochia” value ([6]; 62 g ai/ha, scale 0 to 100) of the same compound?
Answer: The value was 0.

Question: What about the “Plant response rating, Kochia” value [6, 8] of the same compound?
Answer: Its value is 10.

Question: And the “Plant response rating, Oat, Wild” value ([7]; 62 g ai/ha, scale 0 to 100)?
Answer: The value was 0.

Question: What about the “Plant response rating, Oat, Wild” value [7, 8] of the same compound?
Answer: Its value is 0.
